Reference: patent US20070248727A1, “Method for Removing Hydrohydroquinone” (KAO CORPORATION, priority 2004, published 2007)

System: rats
Test: Urinary hydrogen peroxide level after giving coffee to rats
Type: in vivo
Conditions: rats given coffee
Excerpt: It is therefore desired to remove hydroxyhydroquinone from coffee.

## Oc1ccc(O)c(O)c1 [hydroxyhydroquinone]
  generation of hydrogen peroxide in the bodies: caused by hydroxyhydroquinone
